The values below come from patent US9949945B2, “3′ equatorial-fluorine-substituted neuraminidase inhibitor compounds, compositions and methods for the use thereof as anti-virals” (THE UNIVERSITY OF BRITISH COLUMBIA, priority 2012, dated 2018).

Common to all, as to type: biochemical
In assay [1] the target is B/Florida E119D (B/Florida/4/2006 mutant 1 E117D) NA (Influenza B virus, UniProt J7JZT1, E117D).
Assay [2] addresses A/Fukui H3N2 E119V (oseltamivir-resistant) NA (Influenza A virus, UniProt A0A0F6NYK2, E119V). The note with it: read-out: IC50 in the enzyme inhibition assay, A/Fukui H3N2 E119V.
The target of assay [3] is Sol Isl sH1N1 E119A (A/Solomon Islands/3/2006 mutant) NA (Influenza A virus, UniProt B4URD9, E119A).
Assay [4] has as its target sH1N1/01 H275Y (A/Mississippi/3/01 oseltamivir-resistant) NA (Influenza A virus, UniProt Q3M0T6, H275Y).

Like-named read-outs stand apart in the source and are kept apart here.

Turning to Oseltamivir, the results for the IC50 in assay [1] and in assay [2] were 1200 nM and 260 nM, respectively.

Consider Zanamivir, for which the IC50 in assay [3] was over 10 µM; in assay [4] (read-out: IC50 in the enzyme inhibition assay, A/Mississippi H1N1 H275Y) it was 2.2 nM; in assay [4] (read-out: IC50 sH1N/01 H275Y) it was 2.2 nM.
